One assay addresses BRD4-BD1 (Homo sapiens (Human), UniProt O60885). The experiment in a line: BRD4 biochemical activity test (TR-FRET), BD1. The following applies: read-out: BRD4 Binding (BD1), IC50. The source says:
(§1) BRD4 Biochemical Activity Test
(§2) 1) BRD4-BD1 and BRD4-BD2 proteins of BPS Company, polypeptide of ANASPEC Company, and test reagent of PerkinElmer Company were used in the experiments;
(§3) 2) The TR-FRET experimental principle was used in the experiment to screen compounds.
(§4) 3) Relevant control compounds
(§5) 1) Preparation of the Compound Plate:
(§6) Preparation of the compound plate in the experiment was achieved by Echo:
(§7) 2) Preparation of Reaction Reagents:
(§8) Relevant reaction reagents should be prepared on the day of the experiment:
(§9) a) Formulation of 1× assay buffer;
(§10) b) Formulation of 3× component solution for the experiment: […]
(§11) 1. The reagent was taken out and placed on ice to naturally melt for later use;
(§12) 2. “Solution A” (protein solution), “solution B” (polypeptide solution), and “solution C” (test reagent solution) used in the experiment were formulated with the 1× assay buffer, and during the formation of the 3× solution from the components used in the experiment reaction system, the amounts of solutions A, B and C must be enough for the required amounts in the experiment.
(§13) 3) Experimental Operation Steps:
(§14) The experiment plate was a plate that contained a gradient concentration of the compound and a corresponding DMSO solution and was prepared with ECHO before the experiment:
(§15) a) The experiment plate was taken out, and 5 μL/well of “solution A” (protein solution) was added to columns 2-23 of the experiment plate, then 5 μL/well of 1× assay buffer was added to columns 1 and 24 of the experiment plate, and columns 1 and 24 were used as Min control in the experiment system;
(§16) b) Centrifugation at 1000 rpm was carried out for 30 seconds;
(§17) c) The plate was incubated at 23° C. for 20 minutes;
(§18) d) After 20 minutes of incubation, 5 μL/well of “solution B” (polypeptide solution) was added to columns 1-24 of the experiment plate;
(§19) e) Centrifugation at 1000 rpm was carried out for 30 seconds;
(§20) f) The plate was incubated at 23° C. for 20 minutes;
(§21) g) After 20 minutes of incubation, 5 μL/well of “solution C” (test reagent solution) was added to columns 1-24 of the experiment plate;
(§22) h) Centrifugation at 1000 rpm was carried out for 30 seconds;
(§23) i) The plate was incubated at 23° C. for 40 minutes;
(§24) j) The experiment plate was placed on EnVision to read the plate.
(§25) a) The corresponding Max control and Min control of each experiment plate were used to convert to the Z′ value of the experiment plate, and the Z′ value of each plate was ensured to be >0.5;
(§26) b) The IC50 value was calculated from the signal of the control compound by XLFIT5, and ensured to be maintained within 3 times of the average value of historical data.
For orientation: TR-FRET usually uses a lanthanide donor and a delayed reading to cut background.

For a further assay, the target named is BRD4-BD2 (Homo sapiens (Human), UniProt O60885). The experiment in a line: BRD4 biochemical activity test (TR-FRET), BD2. To be noted: read-out: BRD4 Binding (BD2), IC50.
Source text: as §1, §2, §3, §4, §5, §6, §7, §8, §9, §10, §11, §12, §13, §14, §15, §16, §17, §18, §19, §20, §21, §22, §23, §24, §25, §26

Usually IC50 stands for the point on the concentration scale where inhibition reaches its midpoint.

For the molecule `Cc1sc2c(c1C)C(c1ccc(Cl)cc1)=N[C@@H](CC(=O)Nc1ccc3c(c1)C(=O)NC3)c1nnc(C)n1-2` [Compound 1], the figures for the IC50 on BRD4-BD1 and at BRD4-BD2 were 65 nM and 11 nM, respectively.
With `Cc1sc2c(c1C)C(c1ccc(Cl)cc1)=N[C@@H](CC(=O)Nc1ccc3c(c1)CNC3=O)c1nnc(C)n1-2` [Compound 2], the IC50 on BRD4-BD1 turned out to be 49 nM; on BRD4-BD2 it was 10 nM.
For `Cc1sc2c(c1C)C(c1ccc(Cl)cc1)=N[C@@H](CC(=O)Nc1ccn3c(=O)c(O)cnc3c1)c1nnc(C)n1-2` [Compound 5], the IC50 on BRD4-BD1 was determined as 83 nM; at BRD4-BD2, 9 nM.
Regarding `Cc1sc2c(c1C)C(c1ccc(Cl)cc1)=N[C@@H](CC(=O)Nc1n[nH]c(=O)c3ccccc13)c1nnc(C)n1-2` [Compound 8], the IC50 is 51 nM at BRD4-BD1 and 11 nM on BRD4-BD2.
Taken in the same sequence, the figures for `Cc1sc2c(c1C)C(c1ccc(Cl)cc1)=N[C@@H](CC(=O)Nc1ccc3c(c1)C1(CC1)C(=O)N3)c1nnc(C)n1-2` [Compound 9] were 49 nM and 11 nM.
For the molecule `Cc1sc2c(c1C)C(c1ccc(Cl)cc1)=N[C@@H](CC(=O)Nc1ccc3c(c1)C(=O)NC31CC1)c1nnc(C)n1-2` [Compound 10], the IC50 turned out to be 81 nM at BRD4-BD1 and 16 nM on BRD4-BD2.
Regarding `Cc1sc2c(c1C)C(c1ccc(Cl)cc1)=N[C@@H](CC(=O)Nc1ccc3c(c1)C1(CC1)NC3=O)c1nnc(C)n1-2` [Compound 12], the half-inhibitory concentration (IC50) on BRD4-BD1 was 40 nM; at BRD4-BD2, 12 nM.
The like results for `Cc1sc2c(c1C)C(c1ccc(Cl)cc1)=N[C@@H](CC(=O)Nc1ccc3c(c1)COC3)c1nnc(C)n1-2` [Compound 16] were, in that order, 60 nM and 12 nM.
As to `CC(=O)N1Cc2ccc(NC(=O)C[C@@H]3N=C(c4ccc(Cl)cc4)c4c(sc(C)c4C)-n4c(C)nnc43)cc2C1` [Compound 17], the IC50 stood at 24 nM at BRD4-BD1 and 7 nM on BRD4-BD2.
Taken in the same sequence, the figures for `Cc1sc2c(c1C)C(c1ccc(Cl)cc1)=N[C@@H](CC(=O)Nc1ccc3c(c1)CNC3)c1nnc(C)n1-2` [Compound 18] were 23 nM and 8 nM.
The like results for `Cc1sc2c(c1C)C(c1ccc(Cl)cc1)=N[C@@H](CC(=O)Nc1ccc3c(c1)CN(S(C)(=O)=O)C3)c1nnc(C)n1-2` [Compound 19] were, in that order, 49 nM and 8 nM.
Taken in the same sequence, the figures for `Cc1sc2c(c1C)C(c1ccc(Cl)cc1)=N[C@@H](CC(=O)Nc1ccc3c(c1)CN(C(N)=O)C3)c1nnc(C)n1-2` [Compound 20] were 169 nM and 11 nM.
For `Cc1sc2c(c1C)C(c1ccc(Cl)cc1)=N[C@@H](CC(=O)Nc1ccc3c(c1)CC(F)(F)C3)c1nnc(C)n1-2` [Compound 21], the IC50 stood at 522 nM at BRD4-BD1 and 34 nM at BRD4-BD2.
For the molecule `Cc1sc2c(c1C)C(c1ccc(Cl)cc1)=N[C@@H](CC(=O)Nc1ccc3c(c1)C(=O)SC3)c1nnc(C)n1-2` [Compound 22], the IC50 on BRD4-BD1 was determined as 199 nM; at BRD4-BD2 it was 10 nM.
Taken in the same sequence, the figures for `Cc1sc2c(c1C)C(c1ccc(Cl)cc1)=N[C@@H](CC(=O)Nc1ccc3c(c1)C[C@@H](F)C3)c1nnc(C)n1-2` [Compound 24] were 206 nM and 17 nM.
The like results for `Cc1sc2c(c1C)C(c1ccc(Cl)cc1)=N[C@@H](CC(=O)Nc1ccc3c(c1C)COC3)c1nnc(C)n1-2` [Compound 25] were, in that order, 79 nM and 20 nM.
The like results for `Cc1cc2c(cc1NC(=O)C[C@@H]1N=C(c3ccc(Cl)cc3)c3c(sc(C)c3C)-n3c(C)nnc31)COC2` [Compound 26] were, in that order, 112 nM and 30 nM.
On to `Cc1sc2c(c1C)C(c1ccc(Cl)cc1)=N[C@@H](CC(=O)Nc1ccc3c(c1)CC1(COC1)C3)c1nnc(C)n1-2` [Compound 27], for which the IC50 is 55 nM on BRD4-BD1 and 9 nM on BRD4-BD2.
Taken in the same sequence, the figures for `Cc1sc2c(c1C)C(c1ccc(Cl)cc1)=N[C@@H](CC(=O)Nc1cc3c(cc1Cl)COC3)c1nnc(C)n1-2` [Compound 28] were 60 nM and 15 nM.
Taken in the same sequence, the figures for `Cc1sc2c(c1C)C(c1ccc(Cl)cc1)=N[C@@H](CC(=O)Nc1cc3c(cc1F)COC3)c1nnc(C)n1-2` [Compound 29] were 74 nM and 16 nM.
Taken in the same sequence, the figures for `Cc1sc2c(c1C)C(c1ccc(Cl)cc1)=N[C@@H](CC(=O)Nc1ccc3c(c1)C(=O)OC3)c1nnc(C)n1-2` [Compound 30] were 51 nM and 9 nM.
As to `Cc1sc2c(c1C)C(c1ccc(Cl)cc1)=N[C@@H](CC(=O)Nc1ccc3c(c1)OCCOCCOCCO3)c1nnc(C)n1-2` [Compound 31], the IC50 at BRD4-BD1 worked out at 37 nM; at BRD4-BD2, 5 nM.
Take `Cc1sc2c(c1C)C(c1ccc(Cl)cc1)=N[C@@H](CC(=O)Nc1ccc3nonc3c1)c1nnc(C)n1-2` [Compound 33]: the IC50 at BRD4-BD1 came out at 248 nM; at BRD4-BD2 it was 19 nM.
The like results for `Cc1sc2c(c1C)C(c1ccc(Cl)cc1)=N[C@@H](CC(=O)Nc1ccc3c(c1)[C@H]1CC[C@@H]3O1)c1nnc(C)n1-2` [Compound 35] were, in that order, 155 nM and 12 nM.
Taken in the same sequence, the figures for `Cc1sc2c(c1C)C(c1ccc(Cl)cc1)=N[C@@H](CC(=O)Nc1ccc3c(c1)C(=O)NC3=O)c1nnc(C)n1-2` [Compound 36] were 126 nM and 10 nM.
Turning to `Cc1sc2c(c1C)C(c1ccc(Cl)cc1)=N[C@@H](CC(=O)Nc1ccc3c(c1)C(C)(C)OC3=O)c1nnc(C)n1-2` [Compound 37], the IC50 on BRD4-BD1 was 148 nM; at BRD4-BD2, 11 nM.

The record behind these values is US11312726B2, “Thienodiazepine derivatives and application thereof” (priority 2017, dated 2022).
